Experimental data as given in US12157736B2, “Spiro-lactam NMDA modulators and methods of using same” (Tenacia Biotechnology (Hong Kong) Co., Limited, priority 2016, dated 2024).

Legend:
[1] = target: T1, NMDAR2B (Homo sapiens, UniProt Q13224); experiment: NMDAR agonist assay, [3H]MK-801 binding, NMDAR2B expressing HEK cell membranes; format: biochemical; conditions: 50 μM glutamate; for EC50: read-out: NMDAR2B log EC50 (converted); for Emax: read-out: NMDAR2B: % maximal [3H]MK-801 binding relative to 1 mM glycine
T1 construct: expressed in transfected cells; host or cells: HEK cells (membrane extract)
Method: (§1) Assays were conducted as described by Moskal et al., “GLYX-13: a monoclonal antibody-derived peptide that acts as an N-methyl-D-aspartate receptor modulator,” Neuropharmacology, 49, 1077-87, 2005. These studies were designed to determine if the test compounds act to facilitate NMDAR activation in NMDAR2A, NMDAR2B, NMDAR2C or NMDAR2D expressing HEK cell membranes as measured by increases in [^3H]MK-801 binding.
(§2) In the assay, 300 μg of NMDAR expressing HEK cell membrane extract protein was preincubated for 15 minutes at 25° C. in the presence of saturating concentrations of glutamate (50 μM) and varying concentrations of test compound (1×10^−15M−1×10^−7M), or 1 mM glycine. Following the addition of […] of [^3H]MK-801 (22.5 Ci/mmol), reactions were again incubated for 15 minutes at 25° C. (nonequilibrium conditions). Bound and free [^3H]MK-801 were separated via rapid filtration using a Brandel apparatus.
(§3) In analyzing the data, the DPM (disintegrations per minute) of [^3H]MK-801 remaining on the filter were measured for each concentration of test compound or for 1 mM glycine. The DPM values for each concentration of a ligand (N=2) were averaged. The baseline value was determined from the best fit curve of the DPM values modeled using the GraphPad program and the log(agonist) vs. response (three parameters) algorithm was then subtracted from all points in the dataset. The % maximal [3H]MK-801 binding was then calculated relative to that of 1 mM glycine: all baseline subtracted DPM values were divided by the average value for 1 mM glycine. The EC50 and % maximal activity were then obtained from the best fit curve of the % maximal [3H]MK-801 binding data modelled using the GraphPad program and the log(agonist) vs. response (three parameters) algorithm.
(§4) The tables below summarize the results for the wild type […] NMDAR2A, NMDAR2B, NMDAR2C, and NMDAR2D, and whether the compound is not an agonist (−), is an agonist (+), or is a strong agonist (++), where column A is based on the % maximal [3H]MK-801 binding relative to 1 mM glycine (−=0; <100%=+; and >100%=++); and column B is based on log EC50 values (0=−; ≥1×10^−9 M (e.g., −8)=+; and <1×10^−9 M (e.g., −10)=++).

[2] = target: T2, NMDAR2A (Homo sapiens, UniProt Q12879); experiment: NMDAR agonist assay, [3H]MK-801 binding, NMDAR2A expressing HEK cell membranes; format: biochemical; conditions: 50 μM glutamate; for EC50: read-out: NMDAR2A: log EC50 (converted); for Emax: read-out: NMDAR2A: % maximal [3H]MK-801 binding relative to 1 mM glycine
T2 construct: expressed in transfected cells; host or cells: HEK cells (membrane extract)
Method: as §1, §2, §3, §4

[3] = IV pharmacokinetics; format: in vivo, Sprague Dawley rats; conditions: rat, 2 mg/kg, normal saline
Method: Sprague Dawley rats were dosed intravenously using a normal saline formulation containing 2 mg/kg of the compounds identified in the below table. The table below summarizes the results of the IV pharmacokinetics.

T2 sequence (Q12879 23-1464, species assumed, other chains not shown): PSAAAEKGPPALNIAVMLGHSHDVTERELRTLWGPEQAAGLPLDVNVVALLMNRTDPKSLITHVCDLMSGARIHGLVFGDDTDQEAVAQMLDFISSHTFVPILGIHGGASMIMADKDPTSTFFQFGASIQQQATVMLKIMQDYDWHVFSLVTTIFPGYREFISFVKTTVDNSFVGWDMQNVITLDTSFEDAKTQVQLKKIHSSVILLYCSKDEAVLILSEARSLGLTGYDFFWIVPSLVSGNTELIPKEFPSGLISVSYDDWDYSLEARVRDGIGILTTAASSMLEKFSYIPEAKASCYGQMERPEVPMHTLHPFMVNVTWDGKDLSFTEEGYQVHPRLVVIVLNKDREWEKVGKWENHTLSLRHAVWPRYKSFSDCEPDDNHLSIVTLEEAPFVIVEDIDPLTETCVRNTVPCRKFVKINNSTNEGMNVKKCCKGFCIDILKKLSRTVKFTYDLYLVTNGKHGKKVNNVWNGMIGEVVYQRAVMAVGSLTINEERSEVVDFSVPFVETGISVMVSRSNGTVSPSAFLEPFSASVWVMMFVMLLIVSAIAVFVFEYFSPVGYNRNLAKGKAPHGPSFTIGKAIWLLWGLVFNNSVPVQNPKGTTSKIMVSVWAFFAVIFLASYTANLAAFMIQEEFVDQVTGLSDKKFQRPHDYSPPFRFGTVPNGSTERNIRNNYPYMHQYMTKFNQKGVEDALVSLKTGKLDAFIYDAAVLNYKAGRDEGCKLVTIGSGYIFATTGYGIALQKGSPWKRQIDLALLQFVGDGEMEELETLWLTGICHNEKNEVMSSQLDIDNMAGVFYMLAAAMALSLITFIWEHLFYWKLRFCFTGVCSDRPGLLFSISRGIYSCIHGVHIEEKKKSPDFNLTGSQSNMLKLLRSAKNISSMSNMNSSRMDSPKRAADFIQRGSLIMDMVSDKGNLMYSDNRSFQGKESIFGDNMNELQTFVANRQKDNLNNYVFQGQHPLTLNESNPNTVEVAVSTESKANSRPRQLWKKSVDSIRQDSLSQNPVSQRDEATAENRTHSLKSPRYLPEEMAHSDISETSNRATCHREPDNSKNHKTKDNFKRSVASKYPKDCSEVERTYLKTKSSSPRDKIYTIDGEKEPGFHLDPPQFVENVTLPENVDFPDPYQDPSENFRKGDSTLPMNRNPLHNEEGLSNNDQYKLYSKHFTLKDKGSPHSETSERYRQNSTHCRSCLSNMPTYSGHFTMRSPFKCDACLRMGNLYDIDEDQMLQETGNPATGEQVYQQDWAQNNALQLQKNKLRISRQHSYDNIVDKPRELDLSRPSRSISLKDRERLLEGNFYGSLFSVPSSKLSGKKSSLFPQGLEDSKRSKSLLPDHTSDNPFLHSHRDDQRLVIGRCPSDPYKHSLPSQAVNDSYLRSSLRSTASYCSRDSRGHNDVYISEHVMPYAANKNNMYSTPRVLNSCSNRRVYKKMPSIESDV
T1 sequence (Q13224 27-1484, species assumed, other chains not shown): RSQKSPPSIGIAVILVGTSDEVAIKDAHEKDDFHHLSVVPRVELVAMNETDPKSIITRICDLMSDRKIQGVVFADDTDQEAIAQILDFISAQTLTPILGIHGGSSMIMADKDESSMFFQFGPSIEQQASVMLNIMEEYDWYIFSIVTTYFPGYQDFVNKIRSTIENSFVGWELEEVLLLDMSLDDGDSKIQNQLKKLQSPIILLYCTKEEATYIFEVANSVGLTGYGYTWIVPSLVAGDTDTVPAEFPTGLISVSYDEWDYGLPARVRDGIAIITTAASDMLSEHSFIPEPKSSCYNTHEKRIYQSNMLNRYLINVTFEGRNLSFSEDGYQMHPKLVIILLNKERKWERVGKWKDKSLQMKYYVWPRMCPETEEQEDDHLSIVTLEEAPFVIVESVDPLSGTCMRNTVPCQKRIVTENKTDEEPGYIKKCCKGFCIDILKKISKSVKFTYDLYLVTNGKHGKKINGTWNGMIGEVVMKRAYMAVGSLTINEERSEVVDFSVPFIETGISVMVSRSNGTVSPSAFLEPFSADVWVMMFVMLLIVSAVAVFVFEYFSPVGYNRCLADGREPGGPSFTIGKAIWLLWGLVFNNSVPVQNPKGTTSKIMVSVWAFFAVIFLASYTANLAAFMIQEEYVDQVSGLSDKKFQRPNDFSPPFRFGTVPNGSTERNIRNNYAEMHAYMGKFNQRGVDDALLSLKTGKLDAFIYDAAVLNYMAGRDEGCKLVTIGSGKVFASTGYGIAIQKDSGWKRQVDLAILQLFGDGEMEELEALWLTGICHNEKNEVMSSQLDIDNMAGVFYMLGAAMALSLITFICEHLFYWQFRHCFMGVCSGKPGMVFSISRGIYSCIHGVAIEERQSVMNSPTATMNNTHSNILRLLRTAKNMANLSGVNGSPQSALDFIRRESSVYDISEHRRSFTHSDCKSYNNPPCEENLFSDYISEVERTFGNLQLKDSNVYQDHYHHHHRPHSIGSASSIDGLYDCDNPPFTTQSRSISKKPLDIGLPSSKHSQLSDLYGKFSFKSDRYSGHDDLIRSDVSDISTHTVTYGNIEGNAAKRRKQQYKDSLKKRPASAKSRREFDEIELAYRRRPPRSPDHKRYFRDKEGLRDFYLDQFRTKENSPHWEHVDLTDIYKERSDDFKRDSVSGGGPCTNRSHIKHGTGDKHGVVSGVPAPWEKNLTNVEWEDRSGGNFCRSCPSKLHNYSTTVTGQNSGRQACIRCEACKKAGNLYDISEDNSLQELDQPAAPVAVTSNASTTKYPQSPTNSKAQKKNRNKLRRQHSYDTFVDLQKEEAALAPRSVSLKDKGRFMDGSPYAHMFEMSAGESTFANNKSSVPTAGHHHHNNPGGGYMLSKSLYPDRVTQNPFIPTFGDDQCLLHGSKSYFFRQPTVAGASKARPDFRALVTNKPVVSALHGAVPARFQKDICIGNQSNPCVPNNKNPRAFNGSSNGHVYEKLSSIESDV

Row | SMILES | NMDAR2B: % maximal [3H]MK-801 binding relative to 1 mM glycine [1] | EC50 [2] | EC50 [1] | other results
1 | CC1CC(=O)N(c2ccc(F)cc2)C12CN(Cc1ccccc1)C2=O (single isomer, unassigned) [BX, 2-benzyl-5-(4-fluorophenyl)-8-methyl-2,5-diazaspiro[3.4]octane-1,6-dione] | + (<100%=+) | > 100 nM |  | 
2 | CC1CC(=O)N(c2ccc(F)cc2)C12CN(Cc1ccccc1)C2=O (single isomer, unassigned) [BY, 2-benzyl-5-(4-fluorophenyl)-8-methyl-2,5-diazaspiro[3.4]octane-1,6-dione] | − (−=0) |  | > 100 nM | NMDAR2A: % maximal [3H]MK-801 binding relative to 1 mM glycine [2]: − (−=0)
3 | C[C@@H](O)[C@@H](C(=O)NCc1ccccc1)N1CC2(CCNC(=O)C2)C1=O (single isomer, unassigned) [CA] | − (−=0) | > 100 nM | > 100 nM | 
4 | C[C@@H](O)[C@@H](C(=O)N(C)C)N1CC2(CCNC(=O)C2)C1=O (single isomer, unassigned) [CC] |  | > 100 nM |  | CI [3]: 15.65 mL/min/kg; Emax [2]: 0%
5 | C[C@@H](O)[C@@H](C(=O)N(C)C)N1CC2(CCNC(=O)C2)C1=O (single isomer, unassigned) [CD] |  |  |  | Emax [2]: < 100%
6 | CC1CC(=O)N(c2ccc(F)cc2)C12CN(CC(N)=O)C2=O (single isomer, unassigned) [CE, 2-(5-(4-fluorophenyl)-8-methyl-1,6-dioxo-2,5-diazaspiro[3.4]octan-2-yl)acetamide] | − (−=0) | > 100 nM | > 100 nM | 
7 | CC1CC(=O)N(c2ccc(F)cc2)C12CN(CC(N)=O)C2=O (single isomer, unassigned) [CF, 2-(5-(4-fluorophenyl)-8-methyl-1,6-dioxo-2,5-diazaspiro[3.4]octan-2-yl)acetamide] | + (<100%=+) |  |  | NMDAR2A: % maximal [3H]MK-801 binding relative to 1 mM glycine [2]: − (−=0)
8 | CC1C(N)C(=O)N(C)C12CN(Cc1ccccc1)C2=O (single isomer, unassigned) [CG, 7-amino-2-benzyl-5,8-dimethyl-2,5-diazaspiro[3.4]octane-1,6-dione] | + (<100%=+) | > 100 nM |  | 
9 | CC1C(N)C(=O)N(C)C12CN(Cc1ccccc1)C2=O (single isomer, unassigned) [CH, 7-amino-2-benzyl-5,8-dimethyl-2,5-diazaspiro[3.4]octane-1,6-dione] | − (−=0) |  | > 100 nM | NMDAR2A: % maximal [3H]MK-801 binding relative to 1 mM glycine [2]: − (−=0)
10 | COc1ccc(CN2CC3(CCN(C)C(=O)C3)C2=O)cc1 (single isomer, unassigned) [CI, 2-(4-methoxybenzyl)-7-methyl-2,7-diazaspiro[3.5]nonane-1,6-dione] |  |  |  | CI [3]: 32 mL/min/kg
11 | COc1ccc(CN2CC3(CCN(C)C(=O)C3)C2=O)cc1 (single isomer, unassigned) [CJ, 2-(4-methoxybenzyl)-7-methyl-2,7-diazaspiro[3.5]nonane-1,6-dione] |  |  |  | Emax [1]: > 100%
12 | CCN1CCC2(CC1=O)CN(Cc1ccc(OC)cc1)C2=O (single isomer, unassigned) [CK, 7-ethyl-2-(4-methoxybenzyl)-2,7-diazaspiro[3.5]nonane-1,6-dione] | − (−=0) | > 100 nM | > 100 nM | NMDAR2A: % maximal [3H]MK-801 binding relative to 1 mM glycine [2]: − (−=0)
13 | COc1ccc(CN2CC3(CCNC(=S)C3)C2=O)cc1 (single isomer, unassigned) [CM, 2-(4-methoxybenzyl)-6-thioxo-2,7-diazaspiro[3.5]nonan-1-one] |  | > 100 nM | > 100 nM | 
14 | COc1ccc(CN2CC3(CCNC(=S)C3)C2=S)cc1 (single isomer, unassigned) [CO, 2-(4-methoxybenzyl)-2,7-diazaspiro[3.5]nonane-1,6-dithione] |  |  | > 100 nM | Emax [1]: 0%
15 | COc1ccc(CN2CC3(CCNC(=S)C3)C2=S)cc1 (single isomer, unassigned) [CP, 2-(4-methoxybenzyl)-2,7-diazaspiro[3.5]nonane-1,6-dithione] |  |  |  | Emax [1]: < 100%
16 | COc1ccc(CN2CC3(CCN(CC(C)C)C(=O)C3)C2=O)cc1 (single isomer, unassigned) [CS, 7-isobutyl-2-(4-methoxybenzyl)-2,7-diazaspiro[3.5]nonane-1,6-dione] |  |  |  | Emax [1]: > 100%

Row | SMILES | NMDAR2B: % maximal [3H]MK-801 binding relative to 1 mM glycine [1] | EC50 [2] | EC50 [1] | other results
17 | COc1ccc(CN2CC3(CCN(CC(C)C)C(=O)C3)C2=O)cc1 (single isomer, unassigned) [CT, 7-isobutyl-2-(4-methoxybenzyl)-2,7-diazaspiro[3.5]nonane-1,6-dione] |  |  | > 100 nM | Emax [1]: 0%
18 | O=C1CC2(CCN1)CN(Cc1ccccc1)C2=O (single isomer, unassigned) [CU, 2-benzyl-2,7-diazaspiro[3.5]nonane-1,6-dione] |  | > 100 nM |  | Emax [2]: 0%
19 | O=C1CC2(CCN1)CN(Cc1ccccc1)C2=O (single isomer, unassigned) [CV, 2-benzyl-2,7-diazaspiro[3.5]nonane-1,6-dione] |  |  |  | Emax [2]: < 100%
20 | CN1CCC2(CC1=O)CN(Cc1ccccc1)C2=O (single isomer, unassigned) [CX, 2-benzyl-7-methyl-2,7-diazaspiro[3.5]nonane-1,6-dione] | + (<100%=+) |  |  | NMDAR2A: % maximal [3H]MK-801 binding relative to 1 mM glycine [2]: + (<100%=+)
21 | CCN1CCC2(CC1=O)CN(Cc1ccccc1)C2=O (single isomer, unassigned) [CY, 2-benzyl-7-ethyl-2,7-diazaspiro[3.5]nonane-1,6-dione] |  |  | > 100 nM | 
22 | CNC(=O)[C@H]([C@@H](C)O)N1CC2(CCNC(=O)C2)C1=O (single isomer, unassigned) [DA] | − (−=0) | > 100 nM | > 100 nM | 
23 | CNC(=O)[C@H]([C@@H](C)O)N1CC2(CCNC(=O)C2)C1=O (single isomer, unassigned) [DB] | ++ (>100%=++) |  |  | NMDAR2A: % maximal [3H]MK-801 binding relative to 1 mM glycine [2]: − (−=0)
24 | NC(=O)CN1CC2(CCNC(=O)C2)C1=O (single isomer, unassigned) [DC, 2-(1,6-dioxo-2,7-diazaspiro[3.5]nonan-2-yl)acetamide] |  |  |  | Emax [2]: < 100%
25 | NC(=O)CN1CC2(CCNC(=O)C2)C1=O (single isomer, unassigned) [DD, 2-(1,6-dioxo-2,7-diazaspiro[3.5]nonan-2-yl)acetamide] |  | > 100 nM |  | Emax [2]: 0%
26 | CN1CC2(CCNC(=O)C2)C1=O (single isomer, unassigned) [DG, 2-methyl-2,7-diazaspiro[3.5]nonane-1,6-dione] |  |  | > 100 nM | Emax [1]: 0%
27 | CN1CC2(CCNC(=O)C2)C1=O (single isomer, unassigned) [DH, 2-methyl-2,7-diazaspiro[3.5]nonane-1,6-dione] |  |  |  | Emax [1]: > 100%
28 | CC1CC(=O)N(C)C12CN(CC(N)=O)C2=O (single isomer, unassigned) [DI, 2-(5,8-dimethyl-1,6-dioxo-2,5-diazaspiro[3.4]octan-2-yl)acetamide] |  |  |  | Emax [2]: < 100%
29 | CC1CC(=O)N(C)C12CN(CC(N)=O)C2=O (single isomer, unassigned) [DJ, 2-(5,8-dimethyl-1,6-dioxo-2,5-diazaspiro[3.4]octan-2-yl)acetamide] |  | > 100 nM |  | Emax [2]: 0%
30 | CC1CC(=O)N(c2ccc(F)cc2)C12CN([C@H](C(N)=O)[C@@H](C)O)C2=O (single isomer, unassigned) [DK] |  |  | > 100 nM | 
31 | CC1CC(=O)N(c2ccc(F)cc2)C12CN([C@H](C(N)=O)[C@@H](C)O)C2=O (single isomer, unassigned) [DL] | − (−=0) |  |  | NMDAR2A: % maximal [3H]MK-801 binding relative to 1 mM glycine [2]: + (<100%=+)
32 | CC1C(O)C(=O)N(C)C12CN(Cc1ccccc1)C2=O (single isomer, unassigned) [DM, 2-benzyl-7-hydroxy-5,8-dimethyl-2,5-diazaspiro[3.4]octane-1,6-dione] |  |  | > 100 nM | 
